Values belong to the compound of their own block, whether it stands above or below them. The source made the active and inactive calls. The rule behind the calls is not given here.
Key:
[1] = biological target: T1, Cytochrome P450 3A4 (Homo sapiens, UniProt P08684); assay: Inhibition of CYP3A4 in human liver microsomes using testosterone as substrate in presence of NADPH by LC-MS/MS analysis; type: ADME
[2] = biological target: T2, Cytochrome P450 2C9 (Homo sapiens, UniProt P11712)
[3] = biological target: T1, Cytochrome P450 3A4
[4] = biological target: T3, Cytochrome P450 2D6 (Homo sapiens, UniProt P10635)
[5] = biological target: T4, Cytochrome P450 1A2 (Homo sapiens, UniProt P05177)
T4 sequence (P05177 whole entry): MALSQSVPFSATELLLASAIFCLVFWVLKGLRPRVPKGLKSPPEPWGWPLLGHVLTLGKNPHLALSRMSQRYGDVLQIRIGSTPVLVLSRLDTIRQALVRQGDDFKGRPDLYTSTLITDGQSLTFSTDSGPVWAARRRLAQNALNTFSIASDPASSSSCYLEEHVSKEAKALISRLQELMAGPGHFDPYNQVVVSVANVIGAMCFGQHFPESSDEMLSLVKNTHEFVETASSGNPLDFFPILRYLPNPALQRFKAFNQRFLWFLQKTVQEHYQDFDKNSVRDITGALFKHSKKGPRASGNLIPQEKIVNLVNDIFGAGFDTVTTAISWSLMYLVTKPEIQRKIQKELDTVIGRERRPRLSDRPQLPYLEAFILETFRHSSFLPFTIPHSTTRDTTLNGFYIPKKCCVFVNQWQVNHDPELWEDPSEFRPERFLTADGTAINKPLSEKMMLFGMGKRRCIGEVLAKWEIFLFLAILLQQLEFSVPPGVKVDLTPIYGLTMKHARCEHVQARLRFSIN

[6] = biological target: T5, Cytochrome P450 2C19 (Homo sapiens, UniProt P33261)
[7] = biological target: T2, Cytochrome P450 2C9; remark: listed apart in the source
[8] = Kinetic solubility of the compound in PBS at 200 uM at pH 7.4 after 24 hrs by liquid chromatography-chemiluminescence nitrogen detection assay; type: physicochemical; settings: read-out: Kinetic_solubility
[9] = Octanol-aqueous phosphate buffer distribution coefficient, log D of the compound at pH 7.4 after 1 hr by LC/MS/MS analysis; type: physicochemical
[10] = biological target: T1, Cytochrome P450 3A4; assay: Time dependent inhibition of CYP3A4 in human liver microsomes assessed as substrate AUC shift using testosterone as substrate; type: ADME; parameters: scale not given: the % may be the effect or the level left
[11] = biological target: T1, Cytochrome P450 3A4; assay: Time dependent inhibition of CYP3A4 in human liver microsomes assessed as substrate AUC shift using midazolam as substrate; type: ADME; parameters: scale not given: the % may be the effect or the level left
[12] = Apparent permeability from apical to basolateral side in MDCK cells at 10 uM by LC/MS/MS analysis; type: ADME, cell-based, Canis lupus familiaris; settings: dog
[13] = Apparent permeability from basolateral to apical side in MDCK cells at 10 uM by LC/MS/MS analysis; type: ADME, cell-based, Canis lupus familiaris; settings: dog
[14] = biological target: T1, Cytochrome P450 3A4; assay: Reversible inhibition of CYP3A4 in human liver microsomes using testosterone as substrate in presence of NADPH by LC-MS/MS analysis; type: ADME
[15] = biological target: T1, Cytochrome P450 3A4; assay: Reversible inhibition of CYP3A4 in human liver microsomes using midazolam as substrate in presence of NADPH by LC-MS/MS analysis; type: ADME
[16] = biological target: T3, Cytochrome P450 2D6; assay: Reversible inhibition of CYP2D6 in human liver microsomes using […] as substrate in presence of NADPH by LC-MS/MS analysis; type: ADME
[17] = biological target: T4, Cytochrome P450 1A2; assay: Reversible inhibition of CYP1A2 in human liver microsomes using […] as substrate in presence of NADPH by LC-MS/MS analysis; type: ADME
[18] = biological target: T5, Cytochrome P450 2C19; assay: Reversible inhibition of CYP2C19 in human liver microsomes using […] as substrate in presence of NADPH by LC-MS/MS analysis; type: ADME
[19] = biological target: T3, Cytochrome P450 2D6; assay: Time dependent inhibition of CYP2D6 in human liver microsomes assessed as substrate AUC shift; type: ADME; parameters: scale not given: the % may be the effect or the level left
[20] = biological target: T4, Cytochrome P450 1A2; assay: Time dependent inhibition of CYP1A2 in human liver microsomes assessed as substrate AUC shift; type: ADME; parameters: scale not given: the % may be the effect or the level left
[21] = biological target: T5, Cytochrome P450 2C19; assay: Time dependent inhibition of CYP2C19 in human liver microsomes assessed as substrate AUC shift; type: ADME; parameters: scale not given: the % may be the effect or the level left
[22] = biological target: T2, Cytochrome P450 2C9; assay: Time dependent inhibition of CYP2C9 in human liver microsomes assessed as substrate AUC shift; type: ADME; parameters: scale not given: the % may be the effect or the level left
[23] = Protein binding in human plasma at 5 uM after 4 hrs by rapid equilibrium dialysis based LC-MS/MS analysis; type: ADME, cell-free; settings: read-out: PPB (converted)
[24] = Protein binding in rat plasma at 5 uM after 4 hrs by rapid equilibrium dialysis based LC-MS/MS analysis; type: ADME, cell-free; settings: read-out: PPB (converted)
[25] = Protein binding in mouse plasma at 5 uM after 4 hrs by rapid equilibrium dialysis based LC-MS/MS analysis; type: ADME, cell-free; settings: read-out: PPB (converted)
[26] = Protein binding in dog plasma at 5 uM after 4 hrs by rapid equilibrium dialysis based LC-MS/MS analysis; type: ADME, cell-free, Canis lupus familiaris; settings: read-out: PPB (converted)
[27] = Protein binding in cynomolgus monkey plasma at 5 uM after 4 hrs by rapid equilibrium dialysis based LC-MS/MS analysis; type: ADME, cell-free, Macaca fascicularis; settings: read-out: PPB (converted)
[28] = Thermodynamic solubility of the compound in PBS at pH 7.4 after 24 hrs by liquid chromatography-chemiluminescence nitrogen detection assay; type: physicochemical; settings: read-out: Therm_solubility
[29] = Clearance in Sprague-Dawley rat at 1 mg/kg, iv; type: ADME, organism-based; settings: in vivo
[30] = Clearance in Beagle dog at 0.5 mg/kg, iv; type: ADME, organism-based, Canis lupus familiaris; settings: in vivo
[31] = Half life in Sprague-Dawley rat at 1 mg/kg, iv; type: ADME, organism-based; settings: in vivo
[32] = Half life in Beagle dog at 0.5 mg/kg, iv; type: ADME, organism-based, Canis lupus familiaris; settings: in vivo
[33] = Volume of distribution at steady state in Sprague-Dawley rat at 1 mg/kg, iv; type: ADME, organism-based; settings: in vivo, read-out: Vdss
[34] = Volume of distribution at steady state in Beagle dog at 0.5 mg/kg, iv; type: ADME, organism-based, Canis lupus familiaris; settings: in vivo, read-out: Vdss
[35] = AUC in Sprague-Dawley rat at 5 mg/kg, po; type: ADME, organism-based; settings: in vivo
[36] = AUC in Beagle dog at 3 mg/kg, po; type: ADME, organism-based, Canis lupus familiaris; settings: in vivo
[37] = Cmax in Sprague-Dawley rat at 5 mg/kg, po; type: ADME, organism-based; parameters: dose 5 mg/kg, route oral; settings: in vivo
[38] = Cmax in Beagle dog at 3 mg/kg, po; type: ADME, organism-based, Canis lupus familiaris; parameters: dose 3 mg/kg, route oral; settings: in vivo
[39] = Oral bioavailability in Sprague-Dawley rat at 5 mg/kg; type: ADME, organism-based; settings: in vivo
[40] = Oral bioavailability in Beagle dog at 3 mg/kg; type: ADME, organism-based, Canis lupus familiaris; settings: in vivo
[41] = Time at which plasma concentration stays above plasma protein binding corrected human HT1080 cells IC50 in nude NCR mouse at 25 mg/kg, po bid administered via gavage; type: ADME, organism-based, HT-1080; settings: in vivo
[42] = tested on: HT-1080; assay: Antitumor activity against human HT1080 cells xenografted in nude NCR mouse assessed as tumor growth inhibition at 25 to 50 mg/kg administered via oral gavage twice per day for 5 consecutive days measured up to 20 days; type: functional, organism-based
[43] = tested on: Mus musculus; assay: Toxicity in nude NCR mouse xenografted with human HT1080 cells assessed as change in body weight at 25 to 50 mg/kg administered via oral gavage twice per day for 5 consecutive days measured up to 20 days; type: organism-based, HT-1080; settings: in vivo, 480 h
[44] = tested on: Mus musculus; assay: Increase in body weight in human HT1080 tumor bearing nude NCR mouse cachexia model at 25 to 50 mg/kg administered via oral gavage twice per day for 5 consecutive days measured up to 20 days; type: functional, organism-based

T2 sequence (P11712 whole entry): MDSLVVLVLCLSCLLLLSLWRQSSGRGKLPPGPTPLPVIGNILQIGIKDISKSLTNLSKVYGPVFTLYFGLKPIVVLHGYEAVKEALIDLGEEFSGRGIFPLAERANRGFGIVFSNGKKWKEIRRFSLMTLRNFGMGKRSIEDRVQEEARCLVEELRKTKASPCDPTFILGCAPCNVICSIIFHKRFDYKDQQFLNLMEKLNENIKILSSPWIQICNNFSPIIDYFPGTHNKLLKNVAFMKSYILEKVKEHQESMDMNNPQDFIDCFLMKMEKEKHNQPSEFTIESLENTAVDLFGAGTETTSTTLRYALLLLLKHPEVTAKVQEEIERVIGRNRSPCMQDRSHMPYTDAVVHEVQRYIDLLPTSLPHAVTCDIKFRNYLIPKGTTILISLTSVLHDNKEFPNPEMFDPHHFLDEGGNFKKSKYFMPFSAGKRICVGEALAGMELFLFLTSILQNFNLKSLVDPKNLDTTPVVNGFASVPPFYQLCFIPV
T3 sequence (P10635 whole entry): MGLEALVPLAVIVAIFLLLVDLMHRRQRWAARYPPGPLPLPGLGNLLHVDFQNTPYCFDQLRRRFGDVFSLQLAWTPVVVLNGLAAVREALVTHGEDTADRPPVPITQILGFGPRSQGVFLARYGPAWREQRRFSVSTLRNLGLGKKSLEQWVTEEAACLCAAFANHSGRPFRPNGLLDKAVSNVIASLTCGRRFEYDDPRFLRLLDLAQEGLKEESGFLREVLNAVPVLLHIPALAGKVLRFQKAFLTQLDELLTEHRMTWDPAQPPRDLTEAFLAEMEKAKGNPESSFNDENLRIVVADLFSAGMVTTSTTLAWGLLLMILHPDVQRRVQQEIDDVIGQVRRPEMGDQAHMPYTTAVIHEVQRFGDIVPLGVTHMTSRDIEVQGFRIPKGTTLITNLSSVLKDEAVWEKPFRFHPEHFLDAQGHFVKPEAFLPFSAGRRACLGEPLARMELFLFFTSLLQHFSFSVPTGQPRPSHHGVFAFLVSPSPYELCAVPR
T1 sequence (P08684 whole entry): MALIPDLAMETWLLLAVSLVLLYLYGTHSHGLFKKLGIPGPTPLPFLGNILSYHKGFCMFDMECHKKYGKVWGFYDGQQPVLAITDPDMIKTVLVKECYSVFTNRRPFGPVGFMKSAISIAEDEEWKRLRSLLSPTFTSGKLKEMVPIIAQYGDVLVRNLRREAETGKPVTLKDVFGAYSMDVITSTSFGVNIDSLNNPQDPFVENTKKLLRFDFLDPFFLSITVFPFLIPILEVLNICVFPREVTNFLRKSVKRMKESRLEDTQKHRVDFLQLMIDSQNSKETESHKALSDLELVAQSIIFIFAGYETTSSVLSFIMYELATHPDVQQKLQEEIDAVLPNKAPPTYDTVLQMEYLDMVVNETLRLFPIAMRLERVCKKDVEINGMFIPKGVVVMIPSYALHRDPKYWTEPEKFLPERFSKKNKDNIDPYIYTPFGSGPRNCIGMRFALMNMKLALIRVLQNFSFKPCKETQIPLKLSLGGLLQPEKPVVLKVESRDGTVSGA
T5 sequence (P33261 whole entry): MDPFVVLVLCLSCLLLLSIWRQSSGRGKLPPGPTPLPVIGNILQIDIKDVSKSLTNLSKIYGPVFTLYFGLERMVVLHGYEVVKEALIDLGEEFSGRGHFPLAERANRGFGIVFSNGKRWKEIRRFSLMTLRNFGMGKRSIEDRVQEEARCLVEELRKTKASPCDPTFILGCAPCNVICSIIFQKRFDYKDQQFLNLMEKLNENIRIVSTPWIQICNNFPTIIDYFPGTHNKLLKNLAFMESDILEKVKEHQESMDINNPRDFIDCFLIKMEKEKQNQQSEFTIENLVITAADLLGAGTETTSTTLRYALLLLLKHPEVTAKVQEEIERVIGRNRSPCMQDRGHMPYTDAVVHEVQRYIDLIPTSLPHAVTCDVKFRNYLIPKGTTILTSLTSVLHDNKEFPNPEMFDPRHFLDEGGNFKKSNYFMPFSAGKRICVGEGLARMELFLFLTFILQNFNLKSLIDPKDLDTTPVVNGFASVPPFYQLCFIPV

- IC50 [1]: 7.9 µM
- IC50 [2]: 0.07 µM
- IC50 [3]: 9 µM
- IC50 [4]: > 10 µM
- IC50 [5]: > 10 µM
- IC50 [6]: 6.5 µM
- IC50 [7]: 4.8 µM
Compound: O=C(NCc1ccc(S(=O)(=O)c2cccc(C(F)(F)F)c2)cc1)c1cnc2[nH]ncc2c1

- solubility kinetic at 24 h, 200 µM [8]: > 0.1 mM
- logD at 1 h [9]: 1.2
- Activity [10]: < 15%
- Activity [11]: < 15%
- Papp A→B at 10 µM [12]: 8.8 ×10⁻⁶ cm/s
- Papp B→A at 10 µM [13]: 12 ×10⁻⁶ cm/s
- IC50 [14]: > 10 µM
- IC50 [15]: > 10 µM
- IC50 [16]: > 10 µM
- IC50 [17]: > 10 µM
- IC50 [18]: > 10 µM
- Activity [19]: < 15%
- Activity [20]: < 15%
- Activity [21]: < 15%
- Activity [22]: < 15%
- fraction unbound at 4 h, 5 µM [23]: 0.44
- fraction unbound at 4 h, 5 µM [24]: 0.44
- fraction unbound at 4 h, 5 µM [25]: 0.47
- fraction unbound at 4 h, 5 µM [26]: 0.34
- fraction unbound at 4 h, 5 µM [27]: 0.46
- solubility thermodynamic at 24 h [28]: > 6 mM
- clearance [29]: 110 mL/min/kg
- clearance [30]: 10.8 mL/min/kg
- half-life [31]: 1.4 h
- half-life [32]: 1.2 h
- Vd [33]: 9 L/kg
- Vd [34]: 0.8 L/kg
- AUC [35]: 0.55 µM·h
- AUC [36]: 10.5 µM·h
- Cmax [37]: 640 nM
- Cmax [38]: 4800 nM
- bioavailability [39]: 29%
- bioavailability [40]: 86%
- Time [41]: 20 h
- IC50 [2]: > 10 µM
Compound: CC1(OC(=O)N2CCC3(CC2)C[C@@H]3CNC(=O)N2Cc3ccncc3C2)COC1
- TGI [42]: Active
- Activity [43]: Non-Toxic
- Activity [44]: Active

Source: ChEMBL document CHEMBL3865840, “Minimizing CYP2C9 Inhibition of Exposed-Pyridine NAMPT (Nicotinamide Phosphoribosyltransferase) Inhibitors” (J Med Chem, 2016)
